Experimental data taken from patent US20080176866A1, “NOVEL HETARYL-PHENYLENEDIAMINE-PYRIMIDINES AS PROTEIN KINASE INHIBITORS” (priority 2006, published 2008).

Legend:
CDK1/CycB = biological target: T1, CDK1/CycB (Homo sapiens, UniProt P06493); assay: CDK1/CycB kinase assay; assay type: biochemical; settings: 0.5 μM ATP, histone IIIS, 33P filter assay
T1 construct: GST; purchased ProQinase GmbH, Freiburg; host or cells: baculovirus-infected insect cells (Sf9)
Method: Recombinant CDK1- and CycB-GST fusion proteins, purified from baculovirus-infected insect cells (Sf9), were purchased from ProQinase GmbH, Freiburg. The histone IIIS used as kinase substrate can be purchased from Sigma.
CDK1/CycB (5 ng/μL) was incubated in the presence of various concentrations of test substances (0 μM, and within the range 0.01-100 μM) in 40 μL of assay buffer [50 mM Tris/HCl pH 8.0, 10 mM MgCl2, 0.1 mM Na ortho-vanadate, 1.0 mM dithiothreitol, 0.025% PEG 20000, 0.5 μM ATP, 10 μM histone IIIIS, 0.2 μCi/measurement point ^33P-gamma ATP, 0.05% NP40, 1.25% dimethyl sulphoxide] at 22° C. for 10 min. The reaction was stopped by adding EDTA solution (250 mM, pH 8.0, 15 μl/measurement point).
15 μl of each reaction mixture were loaded onto P30 filter strips (from Wallac), and non-incorporated ^33P-ATP was removed by washing the filter strips three times in 0.5% strength phosphoric acid for 10 min each time. After the filter strips had been dried at 70° C. for 1 hour, the filter strips were covered with scintillator strips (MeltiLex™ A, from Wallac) and baked at 90° C. for 1 hour. The amount of incorporated ^33P (substrate phosphorylation) was determined by scintillation measurement in a gamma radiation counter (Wallac).
The measured data were normalized to 0% inhibition (enzyme reaction without inhibitor) and 100% inhibition (all assay components except enzyme). The IC50 values were determined by means of a 4-parameter fit using the company's own software.

human Aurora-C = biological target: T2, human Aurora-C (Homo sapiens, UniProt Q9UQB9); assay: Aurora-C kinase assay (HTRF); assay type: biochemical; settings: GST-human Aurora-C, 10 μM ATP
T2 construct: GST; made in house; host or cells: transiently transfected HEK293 cells
T2 sequence (Q9UQB9 1-309): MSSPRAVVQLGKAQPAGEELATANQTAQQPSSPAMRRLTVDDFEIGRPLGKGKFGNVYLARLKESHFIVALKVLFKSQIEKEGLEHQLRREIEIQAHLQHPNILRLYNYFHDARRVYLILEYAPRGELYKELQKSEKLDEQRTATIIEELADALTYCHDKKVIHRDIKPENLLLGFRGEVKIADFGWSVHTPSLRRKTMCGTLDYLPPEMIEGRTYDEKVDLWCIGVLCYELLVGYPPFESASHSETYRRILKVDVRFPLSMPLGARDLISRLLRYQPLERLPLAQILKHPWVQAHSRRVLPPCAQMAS
Method: The Aurora-C inhibitory activity of the substances of this invention was measured in the Aurora-C-HTRF assay (HTRF=Homogeneous Time Resolved Fluorescence) described in the following paragraphs.
Recombinant fusion protein of GST and human Aurora-C was expressed in transiently transfected HEK293 cells and purified by affinity chromatography on glutathione-Sepharose. The substrate used for the kinase reaction was the biotinylated peptide biotin-Ttds-FMRLRRLSTKYRT (C terminus in amide form) which can be purchased for example from JERINI Peptide Technologies (Berlin). Aurora-C was incubated in the presence of various concentrations of test substances in 5 μL of assay buffer [25 mM Hepes/NaOH pH 7.4, 0.5 mM MnCl2, 2.0 mM dithiothreitol, 0.1 mM sodium orthovanadate, 10 μM adenosine triphosphate (ATP), […] substrate, 0.01% (v/v) TritonX-100 (Sigma), 0.05% (w/v) bovine serum albumin (BSA), 1% (v/v) dimethyl sulphoxide] at 22° C. for 60 min. The concentration of Aurora-C was adapted to the particular activity of the enzyme and adjusted so that the assay operated in the linear range. Typical concentrations were in the region of 0.3 nM. The reaction was stopped by adding 5 μl of a solution of HTRF detection reagents (0.2 μM streptavidin-XLent and 1.4 nM anti-phospho-(Ser/Thr)-Akt substrate-Eu-cryptate (C is biointernational, France, product No. 61P02KAE), a Europium-cryptate-labelled phospho-(Ser/Thr)-Akt substrate antibody [product #9611B, Cell Signaling Technology, Danvers, Mass., USA]) in aqueous EDTA solution (40 mM EDTA, 400 mM KF, 0.05% (w/v) bovine serum albumin (BSA) in 25 mM HEPES/NaOH pH 7.0).
The resulting mixture was incubated at 22° C. for 1 h in order to allow formation of a complex of the biotinylated phosphorylated substrate and the detection reagents. The amount of phosphorylated substrate was then estimated by measuring the resonance energy transfer from the anti-phospho-(Ser/Thr)-Akt substrate-Eu cryptate to the streptavidin-XLent. For this purpose, the fluorescence emissions at 620 nm and 665 nm after excitation at 350 nm were measured in an HTRF measuring instrument, e.g. a Rubystar (BMG Labtechnologies, Offenburg, Germany) or a Viewlux (Perkin-Elmer). The ratio of the emissions at 665 nm and at 622 nm was taken as a measure of the amount of phosphorylated substrate. The data were normalized (enzymic reaction without inhibitor=0% inhibition, all other assay components but no enzyme=100% inhibition) and IC50 values were calculated with a 4-parameter fit using an inhouse software.

T1 sequence (P06493 whole entry): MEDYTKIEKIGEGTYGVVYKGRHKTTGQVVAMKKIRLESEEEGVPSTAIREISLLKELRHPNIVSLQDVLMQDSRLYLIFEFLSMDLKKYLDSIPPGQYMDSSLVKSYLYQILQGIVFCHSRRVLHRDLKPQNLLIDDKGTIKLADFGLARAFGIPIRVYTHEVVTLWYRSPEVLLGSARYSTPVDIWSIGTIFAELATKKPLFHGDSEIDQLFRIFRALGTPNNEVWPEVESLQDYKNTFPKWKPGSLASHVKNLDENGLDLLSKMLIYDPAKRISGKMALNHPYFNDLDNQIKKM
T1 sequence (P14635 whole entry partner): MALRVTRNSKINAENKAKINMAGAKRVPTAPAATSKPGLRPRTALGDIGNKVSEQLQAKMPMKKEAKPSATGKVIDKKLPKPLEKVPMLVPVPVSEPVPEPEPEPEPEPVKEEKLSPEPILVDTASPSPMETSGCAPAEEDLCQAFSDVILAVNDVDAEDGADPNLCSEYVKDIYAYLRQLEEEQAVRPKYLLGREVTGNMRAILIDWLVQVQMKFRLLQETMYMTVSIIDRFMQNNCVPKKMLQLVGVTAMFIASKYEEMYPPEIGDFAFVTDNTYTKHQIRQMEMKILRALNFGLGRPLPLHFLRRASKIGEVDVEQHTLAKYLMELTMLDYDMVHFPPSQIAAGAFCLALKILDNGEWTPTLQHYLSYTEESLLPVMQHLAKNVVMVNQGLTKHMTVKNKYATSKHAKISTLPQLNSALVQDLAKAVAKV

IC50 (CDK1/CycB) | IC50 (human Aurora-C) | SMILES
40 nM | 75 nM | C[C@@H](O)[C@@H](C)Oc1nc(Nc2ccc(Nc3nccc(NCCN(C)C)n3)cc2)ncc1Br [Example 18]
 | 53 nM | CC(=O)NCCNc1nc(Nc2cccc(Nc3ncc(Br)c(NCCNC(C)=O)n3)c2)ncc1Br [Example 30]
78 nM | 380 nM | C[C@@H](O)[C@@H](C)Nc1nc(Nc2ccc(Oc3cccnc3)cc2)ncc1Br [Example 33]
110 nM | 130 nM | C[C@@H](O)[C@@H](C)Oc1nc(Nc2ccc(Nc3ncc(Br)cn3)cc2)ncc1Br [Example 24]
35 nM | 490 nM | C[C@@H](O)[C@@H](C)Nc1nc(Nc2ccc(Oc3ncccn3)cc2)ncc1Br [Example 34]
71 nM | 100 nM | C[C@@H](O)[C@@H](C)Oc1nc(Nc2ccc(Nc3nccc(N(C)C)n3)cc2)ncc1Br [Example 17]
28 nM | 200 nM | C[C@@H](O)[C@@H](C)Oc1nc(Nc2ccc(Nc3nccc(OCCO)n3)cc2)ncc1Br [Example 8, (2R,3R)-3-(5-Bromo-2-{4-[4-(2-hydroxyethoxy)pyrimidin-2-ylamino]-phenylamino}pyrimidin-4-yloxy)butan-2-ol]
> 1000 nM | 8100 nM | CSc1nc(Nc2ccc(Nc3ccccn3)cc2)ncc1Br [Example 29]
> 1000 nM | 1000 nM | C[C@@H](O)[C@@H](C)Sc1nc(Nc2ccc(Nc3ncc(Cl)c(NCCO)n3)cc2)ncc1Br [Example 44]
51 nM | 91 nM | Cc1cnc(Nc2ccc(Nc3ncc(Br)c(O[C@H](C)[C@@H](C)O)n3)cc2)nc1NCCO [Example 19]
23 nM | 42 nM | C[C@@H](O)[C@@H](C)Oc1nc(Nc2ccc(Nc3nccc(N)n3)cc2)ncc1Br [Example 16]
27 nM | 140 nM | C[C@@H](O)[C@@H](C)Oc1nc(Nc2ccc(Nc3ncccn3)cc2)ncc1Br [Example 15]
16 nM | 440 nM | C[C@@H](O)[C@@H](C)Oc1nc(Nc2cccc(Nc3nccc(OCCO)n3)c2)ncc1Br [Example 27]
54 nM | 180 nM | C[C@@H](O)[C@@H](C)Oc1nc(Nc2ccc(Nc3ncc(Cl)c(NCCO)n3)cc2)ncc1Br [Example 21]
11 nM | 350 nM | C[C@@H](O)[C@@H](C)Nc1nc(Nc2ccc(Sc3nncn3C)cc2)ncc1Br [Example 39]
130 nM | 270 nM | COc1ccnc(Nc2ccc(Nc3ncc(Br)c(O[C@H](C)[C@@H](C)O)n3)cc2)n1 [Example 22]
14 nM | 340 nM | C[C@@H](O)[C@@H](C)Oc1nc(Nc2cccc(Nc3ncccn3)c2)ncc1Br [Example 25]
